The target in one assay is T1, MAO-B (Homo sapiens, UniProt P27338).
T1 construct: purchased Merck MAK296
T1 sequence (P27338 1-520): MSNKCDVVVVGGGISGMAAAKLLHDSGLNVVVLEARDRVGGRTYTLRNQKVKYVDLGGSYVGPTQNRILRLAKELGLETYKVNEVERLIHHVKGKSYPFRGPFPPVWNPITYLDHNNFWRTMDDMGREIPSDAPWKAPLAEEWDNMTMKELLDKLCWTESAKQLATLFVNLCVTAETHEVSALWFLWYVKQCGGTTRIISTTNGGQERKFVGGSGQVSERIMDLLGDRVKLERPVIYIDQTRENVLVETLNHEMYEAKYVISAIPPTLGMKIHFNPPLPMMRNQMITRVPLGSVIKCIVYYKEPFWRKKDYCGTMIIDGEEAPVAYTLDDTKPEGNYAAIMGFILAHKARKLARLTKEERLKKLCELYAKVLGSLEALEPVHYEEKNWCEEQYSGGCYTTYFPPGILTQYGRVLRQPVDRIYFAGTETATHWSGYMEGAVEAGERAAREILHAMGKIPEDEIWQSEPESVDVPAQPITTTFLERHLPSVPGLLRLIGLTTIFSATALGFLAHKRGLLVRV
The assay is described as follows: Monoamine Oxidase-B Inhibitor Screening Kit (Merck, MAK296), fluorometric assay. The following applies: for inhibition at 1 µM: concentration 1 uM; for inhibition at 10 µM: concentration 10 uM; for inhibition at 100 µM: concentration 100 uM; for IC50: secondary screen, 10 concentrations from 100 µM, duplicate. Format: biochemical. The method, then:
(§1) The experimental details for determining IC50 are presented in Supporting Information B.
(§2) To evaluate the IC50 of inhibitors, two fluorometric assays were used: the Monoamine Oxidase-A Inhibitor Screening Kit and the Monoamine Oxidase-B Inhibitor Screening Kit (Merck), according to the manufacturer’s protocol. The Echo dose-response software was used to prepare the plates. The compounds were tested at 10 concentrations, starting from 100 µM with a dilution factor of 3.16. All compounds were tested in duplicate in a final concentration of 1% of DMSO. Using a Mantis Liquid Dispenser (Formulatrix), 12.5 µL of protein was added to each tested compound (final concentration of 56 nM) and incubated for 60 minutes at 25°C (MAO-A) or 60 minutes at 37°C (MAO-B). Subsequently, the enzymatic reaction was initiated by adding 10 µL of substrate per well, followed by incubation for 60 minutes at 25°C (MAO-A) or 60 minutes at 37°C (MAO-B). The fluorescence intensity was measured using a plate reader (BioTek Synergy H1) with the following settings: excitation at 535 nm and emission at 587 nm. The data were normalized against low control (assay buffer […]
(§3) (1 picture or pasted object on this page, not shown here) […]
(§4) containing substrate) and high control (protein and substrate). The results were presented as a percentage of inhibition. […]

In another assay the target is T2, MAO-A (Homo sapiens, UniProt P21397).
T2 construct: purchased Merck MAK295
T2 sequence (P21397 1-527): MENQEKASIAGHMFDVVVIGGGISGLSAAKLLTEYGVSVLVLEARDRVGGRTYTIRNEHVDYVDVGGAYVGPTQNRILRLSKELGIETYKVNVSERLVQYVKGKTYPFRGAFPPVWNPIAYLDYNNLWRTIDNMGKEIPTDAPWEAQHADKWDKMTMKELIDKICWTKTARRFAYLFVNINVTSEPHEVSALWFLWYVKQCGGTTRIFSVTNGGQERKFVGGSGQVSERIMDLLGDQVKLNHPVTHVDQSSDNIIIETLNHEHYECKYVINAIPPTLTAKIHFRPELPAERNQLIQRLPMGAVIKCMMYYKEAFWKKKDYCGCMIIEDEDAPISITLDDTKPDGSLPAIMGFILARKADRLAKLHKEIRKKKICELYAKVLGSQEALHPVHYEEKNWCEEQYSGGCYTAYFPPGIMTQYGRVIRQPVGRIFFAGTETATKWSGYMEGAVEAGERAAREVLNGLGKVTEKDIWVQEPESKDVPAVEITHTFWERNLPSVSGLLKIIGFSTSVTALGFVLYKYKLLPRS
The assay is described as follows: Monoamine Oxidase-A Inhibitor Screening Kit (Merck, MAK295), fluorometric assay. The following applies: for inhibition at 1 µM: concentration 1 uM; for inhibition at 10 µM: concentration 10 uM; for inhibition at 100 µM: concentration 100 uM; for IC50: secondary screen, 10 concentrations from 100 µM, duplicate. It counts as biochemical. The method, then:
as §1, §2, §3, §4

Structures are written as SMILES.

For orientation: inhibition means the drop in the measured response relative to a control, in per cent. One may read the IC50 as the concentration at which inhibition is half-maximal. With `CC(=O)NCC1CN(c2ccc(N3CCOCC3)c(F)c2)C(=O)O1` (stereo not shown) [MolPort-002-744-025], at MAO-B, the inhibition at 1 µM is 59%, the inhibition at 10 µM was 81%, the inhibition at 100 µM was 97.3% and the IC50 worked out at 460 nM. Also, on MAO-A, the inhibition at 1 µM came out at 4.19%, the inhibition at 10 µM turned out to be 0% and the inhibition at 100 µM was 43.5%.

For the molecule `O=c1oc2cc(OCc3cccc(Cl)c3)ccc2c2c1CCC2` [MolPort-000-651-742], on MAO-B, the inhibition at 1 µM came out at 91.3%, the inhibition at 10 µM came to 98.4%, the inhibition at 100 µM is 98% and the 50% inhibitory concentration (IC50) came out at 9.76 nM. Moreover, on MAO-A, the inhibition at 1 µM was determined as 4.35%, the inhibition at 10 µM came to 0% and the inhibition at 100 µM was found to be 0%.

`COc1ccc(C2=NN(C(C)=O)C(c3ccccc3)C2)c(O)c1` (stereo not shown) [MolPort-000-773-355]: at MAO-B, the inhibition at 1 µM came out at 0%, the inhibition at 10 µM is 0% and the inhibition at 100 µM was determined as 0%. At MAO-A, the inhibition at 1 µM came out at 0%, the inhibition at 10 µM stood at 0% and the inhibition at 100 µM came to 0%.

As for `Cc1cc(=O)oc2cc(OCC(=O)N/N=C/c3ccccc3)ccc12` [MolPort-002-548-000], on MAO-B, the inhibition at 1 µM stood at 0%, the inhibition at 10 µM was found to be 0% and the inhibition at 100 µM worked out at 0%. Moreover, on MAO-A, the inhibition at 1 µM amounted to 0%, the inhibition at 10 µM was 0% and the inhibition at 100 µM amounted to 0%.

In the case of `CCc1ccc(Nc2ncc3c(n2)CC(C)CC3=O)cc1` (stereo not shown) [MolPort-000-511-281], on MAO-B, the inhibition at 1 µM worked out at 40%, the inhibition at 10 µM worked out at 83.7%, the inhibition at 100 µM was 96.4% and the half-inhibitory concentration (IC50) came to 66.1 nM. At MAO-A, the inhibition at 1 µM stood at 0%, the inhibition at 10 µM worked out at 0% and the inhibition at 100 µM was found to be 0%.

With `O=C(Cn1c(=O)oc2ccccc21)Nc1nnc(SCc2ccccc2)s1` [MolPort-001-610-534], on MAO-B, the inhibition at 1 µM was 0%, the inhibition at 10 µM is 0% and the inhibition at 100 µM was found to be 0%. Also, on MAO-A, the inhibition at 1 µM was determined as 0%, the inhibition at 10 µM was found to be 0% and the inhibition at 100 µM worked out at 15.7%.

On to `COc1ccc(C2SCC(=O)N2NC(=O)COc2ccc3c(C)cc(=O)oc3c2)cc1` (stereo not shown) [MolPort-002-546-020], for which, on MAO-B, the inhibition at 1 µM was 0%, the inhibition at 10 µM is 0% and the inhibition at 100 µM was determined as 46.3%. Moreover, at MAO-A, the inhibition at 1 µM turned out to be 0%, the inhibition at 10 µM was found to be 0% and the inhibition at 100 µM was found to be 0%.

With `O=c1c(-c2ccccc2)coc2cc(O)cc(O)c12` [MolPort-003-665-835], at MAO-B, the inhibition at 1 µM was 0%, the inhibition at 10 µM was 39.8%, the inhibition at 100 µM is 87.3% and the IC50 worked out at 2830 nM. Moreover, on MAO-A, the inhibition at 1 µM came to 0%, the inhibition at 10 µM is 0% and the inhibition at 100 µM came to 0%.

In the case of `Cc1c(-c2ccccc2)c(=O)oc2cc(OS(=O)(=O)c3ccc(Br)cc3)ccc12` [MolPort-000-479-802], on MAO-B, the inhibition at 1 µM stood at 0%, the inhibition at 10 µM turned out to be 0% and the inhibition at 100 µM amounted to 27.3%. Further, on MAO-A, the inhibition at 1 µM is 1.21%, the inhibition at 10 µM turned out to be 5.32% and the inhibition at 100 µM was determined as 25.6%.

Consider `Fc1ccc(-c2ccc3c(c2)[nH]c2ccncc23)cn1` [MolPort-044-831-708], for which, on MAO-B, the inhibition at 1 µM is 5.64%, the inhibition at 10 µM worked out at 37.9%, the inhibition at 100 µM stood at 81.3% and the half-maximal inhibitory concentration (IC50) was determined as 11900 nM. Moreover, on MAO-A, the inhibition at 10 µM amounted to 16.5%, the inhibition at 100 µM came to 84.2% and the IC50 was found to be 23600 nM.

On to `Cc1csc(N/N=C/c2cc(Cl)ccc2Cl)n1` [MolPort-000-660-156], for which, at MAO-B, the inhibition at 1 µM stood at 3.45%, the inhibition at 10 µM stood at 0.34% and the inhibition at 100 µM was found to be 39.5%. On MAO-A, the inhibition at 1 µM came out at 10.8%, the inhibition at 10 µM worked out at 24.3% and the inhibition at 100 µM is 46.7%.

Take `Clc1ccc(/C=N/c2ccc3[nH]ncc3c2)c(Cl)c1` [MolPort-002-945-866]: on MAO-B, the inhibition at 1 µM came to 0%, the inhibition at 10 µM amounted to 32.5%, the inhibition at 100 µM came to 84.4% and the IC50 amounted to 32400 nM. Further, on MAO-A, the inhibition at 1 µM was found to be 7.2%, the inhibition at 10 µM came out at 26.1% and the inhibition at 100 µM is 7.8%.

With `Cc1nc(Nc2ncc3c(n2)CC(C)CC3=O)nc2ccccc12` (stereo not shown) [MolPort-000-510-622], on MAO-B, the inhibition at 1 µM was determined as 0%, the inhibition at 10 µM turned out to be 21% and the inhibition at 100 µM is 77.5%. Moreover, at MAO-A, the inhibition at 1 µM worked out at 0%, the inhibition at 10 µM stood at 0% and the inhibition at 100 µM was 0%.

As for `Cc1ccc(/C=N/Nc2nc3ccccc3nc2Cc2ccccc2)cc1` [Molport-002-863-179], at MAO-B, the inhibition at 1 µM is 0%, the inhibition at 10 µM is 0% and the inhibition at 100 µM is 0%. Moreover, at MAO-A, the inhibition at 1 µM amounted to 0%, the inhibition at 10 µM amounted to 0% and the inhibition at 100 µM is 0%.

For the molecule `O=C(Nc1ccc(Cl)cc1)C1=Cc2ccccc2OC1` [MolPort-000-686-585], on MAO-B, the inhibition at 1 µM is 0%, the inhibition at 10 µM amounted to 51.7%, the inhibition at 100 µM was found to be 91.2% and the IC50 was 10300 nM. Besides, on MAO-A, the inhibition at 1 µM is 0%, the inhibition at 10 µM turned out to be 0% and the inhibition at 100 µM amounted to 0%.

Consider `Cc1cc(=O)oc2c(C)c(OCc3nnc(S)n3-c3ccc(Br)cc3)ccc12` [MolPort-002-847-536], for which, at MAO-B, the inhibition at 1 µM turned out to be 11.9%, the inhibition at 10 µM stood at 30.3%, the inhibition at 100 µM turned out to be 105% and the 50% inhibitory concentration (IC50) is 2320 nM. Besides, on MAO-A, the inhibition at 1 µM was determined as 0%, the inhibition at 10 µM amounted to 17.7%, the inhibition at 100 µM is 84.1% and the concentration for half-maximal inhibition (IC50) is 31900 nM.

As for `Cc1nnc2c(Cc3ccccc3)nc3ccccc3n12` [Molport-002-872-748], on MAO-B, the inhibition at 1 µM was found to be 0%, the inhibition at 10 µM was 0% and the inhibition at 100 µM was 0%. Also, at MAO-A, the inhibition at 1 µM came to 0%, the inhibition at 10 µM stood at 0% and the inhibition at 100 µM came to 0%.

On to `CC(=O)Nc1ccc2c(c1)-c1ccccc1C2=O` [MolPort-001-824-101], for which, on MAO-B, the inhibition at 1 µM is 0%, the inhibition at 10 µM came to 0% and the inhibition at 100 µM came out at 27.7%. Further, on MAO-A, the inhibition at 1 µM is 80.5%, the inhibition at 10 µM worked out at 93.7%, the inhibition at 100 µM came out at 97.8% and the IC50 is 600 nM.

(Values after article PMC12344758, “Qsarna: An Online Tool for Smart Chemical Space Navigation in Drug Design” (Journal of Chemical Information and Modeling, 2025).)
